Laboratory results taken from US10557129B2, “Peptides derived from human PCSK9 catalytic domain and uses thereof for promoting LDL-R activity” (Pronasci Inc., priority 2015, dated 2020).

Columns and labels:
[1] = Model fluorescence quenching of FI-Bio-Ahx-Lys-Methyl ester (IIId) by biotin-binding proteins; details: for maximal quenching of fluorescence intensity of (IIId): data not shown; for quenching of fluorescence intensity of (IIId): 8:1 molar ratio protein:(IIId), FIGS. 7A, 7B
Protocol: FIG. 7A illustrates fluorescence scan spectroscopy of FI-Bio-Ahx-Lys-Methyl ester (IIId) in presence of avidin.
FIG. 7B illustrates fluorescence scan spectroscopy of FI-Bio-Ahx-Lys-Methyl ester (IIId) in presence of insulin as control peptide. […] For each experiment 5 μl of 0.5 mM (IIId) peptide in water was used.
Previously a number of studies reported that the interaction between two ligands one of which is fluorescence labeled can be followed by studying fluorescence intensity. In general the fluorescence intensity is suppressed with or without shift of emission peak position when there is a strong interaction between the two ligands. Greater the suppression or quenching of fluorescence intensity, greater is the strength of binding. In order to further confirm the above notion, a study was carried out by using a fixed concentration of fluorescent biotinylated peptide (IIId) and increasing doses of avidin protein. […] These avidin analogs with varying binding affinity towards biotin have been developed and made available through commercial organizations [Polyscience Inc., Technical Data Sheet Report-779]. […] This study confirms that fluorescence quenching is an indicator of binding between two ligands one of which is fluorescently labeled.

LDL-R [2] = molecular target: T1, LDL-R (Homo sapiens, UniProt P01130); details: added exogenously to growing HepG2 cells; cited from earlier work
T1 construct: western blot analyses for endogenous LDL-R; endogenous in cells; host or cells: HepG2

LDL-R [3] = molecular target: T1, LDL-R; assay: LDL-R level in HepG2 cells by western blot of whole cell lysates; format: cell-based
Protocol: (§1) FIG. 13 illustrates (A) Western blot analyses showing the quantitation of LDL-R and PCSK9 levels under various conditions in HepG2 cells. These are western blot figures showing the effect of externally added FI-EGF-A peptide on exogenous levels of LDL-R and PCSK9 in growing HepG2 cells. The cells were harvested after 24 h and whole cell lysates were used for analysis of LDL-R, PCSK9 and actin levels both for control sample (DMSO) and FI-EGF-A done in duplicates. Actin was used as a house keeping control protein for quantitation purpose. (B): Rescue effect of FI-EGF-A peptide added in increasing concentration levels on LDL-R in growing HuH7 cells in the presence of added rec-PCSK9 protein. Rec-PCSK9 was incubated with various amounts of FI-EGF-A for 3 h at room temp and then applied to cells growing in 2 mL media to the concentrations as indicated in the figure. The cells were harvested 7 h later.
(§2) FIG. 14 illustrates Western blots showing PCSK9 and LDL-R levels in the presence of various PCSK9 catalytic peptides in HepG2 cell. […]
(§3) The number passages of cell lines used were 6-8 times until they are at least 80% confluent as determined by microscope. […] All culture samples including whole cell lysate (WCL) were analysed for their protein contents using Pierce BCA (Bicinchoninic acid) reagent method or Bradford assay (Bio-Rad #500-0205) as described later.
(§4) In general 20 μg of WCLs derived from various peptide treated HepG2 cell experiments was resolved by conventional 12% SDS-PAGE (Laemmli, 1970 #2). Resolved samples were then transferred to polyvinylidene fluoride (Bio-Rad #162-0177) and probed for LDL-R (R&D Systems #AF2148), hPCSK9 (Circulex #CY-M1033), Transferrin Recepter (TR) (Invitrogen #13-6800), αβ-actin-HRP (Horse Radish Peroxidase) (abcam #ab49900) and αFLAG-HRP (abcam #1238) primary antibodies and detected with α goat-HRP (abcam #ab6741) or a mouse-HRP (Bio-Rad #172-1011) secondary antibodies and visualized on a Bio-Rad versa dock imaging system using Clarity ECL Western Substrate (Bio-Rad #170-5060). […]

[4] = Molecular Probes handbook; read-out: Kd with biotin; cited from earlier work
[5] = molecular target: T2, recombinant hPCSK9 wild type (Homo sapiens, UniProt Q8NBP7); assay: SDS-PAGE fluorescence / western blot binding of FI-EGF-A to recombinant FLAG-hPCSK9; details: 5 μg FI-EGF-A + 1 μg rec-hPCSK9 WT, 2 h room temperature; fluorescent band at ~65 kDa; FIG. 12
T2 construct: complex formation between 60 kDa rec-hPCSK9 mature form with 5 kDa FI-EGF-A; made in house
Protocol: FIG. 12 illustrates SDS-Gel electrophoresis of FI-EGF-A peptide in presence and absence of recombinant hPCSK9 protein. 5 μg of FI-EGF-A (Ib) was incubated with 1 μg rec-hPCSK9 wild type (WT) for 2 h at room temperature. The samples were resolved in 10% SDS PAGE. Left: Fluorescence detection; Right: Western blot using anti-FLAG as primary antibody. There is a fluorescence positive band around 65 kDa (a mobility shift by ˜5 kDa) shown by thick arrow indicating complex formation between 60 kDa rec-hPCSK9 mature form with 5 kDa FI-EGF-A (Ib) (Left panel). […] It is also noticed that after incubation with FI-EGF-A peptide, the 74 kDa PCSK9 protein is not recognized by anti-FLAG antibody while the 60 kDa hPCSK9 protein is still recognized but with reduced potency. […]
Binding assays of various PCSK9 peptides were carried out by incubating 15 μg of each peptide (˜0.008 mM) with 20 μg of FL-EGF-A in a final volume of 20 μl of 25 mM HEPES (pH 7.4), 150 mM NaCl, 2 mM CaCl2 for 2 h at 37° C. Similar study was also performed using recPCSK9 wild type as well as D/Y variants against FI-EGF-A. Each sample along with the control without any added peptide was assessed for any binding between FI-EGF-A and peptide using fluorescence study, Mass spectrometry and Native gel studies […]

LDL-R [6] = assay: Rescue of LDL-R level in cells after addition of rec-PCSK9 protein (HuH7); format: cell-based, human
Protocol: as §1, with “Rec-PCSK9 was incubated with various amounts of FI-EGF-A for 3 h at room temp and then applied to cells growing in 2 mL media to the concentrations as indicated in the figure. The cells were harvested 7 h later.” left out
as §4

PCSK9 = PCSK9 level in HepG2 cells by western blot of whole cell lysates; format: cell-based, human; details: HepG2, 12 μg/ml, 24 h; FIG. 13A
Protocol: as §1, §2
as §3, with “later. […]” for “later.”

T1 sequence (P01130 22-860): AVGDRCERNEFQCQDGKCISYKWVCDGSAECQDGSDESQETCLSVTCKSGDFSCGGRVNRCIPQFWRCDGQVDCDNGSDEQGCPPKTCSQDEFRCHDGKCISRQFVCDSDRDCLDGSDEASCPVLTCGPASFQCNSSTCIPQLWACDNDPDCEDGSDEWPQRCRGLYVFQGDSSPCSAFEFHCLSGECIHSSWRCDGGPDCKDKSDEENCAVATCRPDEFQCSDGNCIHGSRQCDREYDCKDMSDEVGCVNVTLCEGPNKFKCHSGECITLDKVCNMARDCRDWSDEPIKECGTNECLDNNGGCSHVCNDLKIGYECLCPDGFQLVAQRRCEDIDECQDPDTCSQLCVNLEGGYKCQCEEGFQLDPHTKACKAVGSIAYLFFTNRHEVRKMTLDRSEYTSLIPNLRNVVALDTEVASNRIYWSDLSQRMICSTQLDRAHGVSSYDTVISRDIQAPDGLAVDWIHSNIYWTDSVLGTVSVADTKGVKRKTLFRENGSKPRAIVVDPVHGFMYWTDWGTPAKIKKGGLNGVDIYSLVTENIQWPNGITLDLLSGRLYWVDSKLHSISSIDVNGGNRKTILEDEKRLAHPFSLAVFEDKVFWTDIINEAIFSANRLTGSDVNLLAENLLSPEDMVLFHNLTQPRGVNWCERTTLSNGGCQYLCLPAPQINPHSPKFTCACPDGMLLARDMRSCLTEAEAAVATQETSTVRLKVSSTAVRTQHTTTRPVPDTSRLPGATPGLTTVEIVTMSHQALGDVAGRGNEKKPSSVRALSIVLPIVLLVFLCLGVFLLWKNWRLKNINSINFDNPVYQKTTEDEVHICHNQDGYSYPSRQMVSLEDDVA
T2 sequence (Q8NBP7 153-692): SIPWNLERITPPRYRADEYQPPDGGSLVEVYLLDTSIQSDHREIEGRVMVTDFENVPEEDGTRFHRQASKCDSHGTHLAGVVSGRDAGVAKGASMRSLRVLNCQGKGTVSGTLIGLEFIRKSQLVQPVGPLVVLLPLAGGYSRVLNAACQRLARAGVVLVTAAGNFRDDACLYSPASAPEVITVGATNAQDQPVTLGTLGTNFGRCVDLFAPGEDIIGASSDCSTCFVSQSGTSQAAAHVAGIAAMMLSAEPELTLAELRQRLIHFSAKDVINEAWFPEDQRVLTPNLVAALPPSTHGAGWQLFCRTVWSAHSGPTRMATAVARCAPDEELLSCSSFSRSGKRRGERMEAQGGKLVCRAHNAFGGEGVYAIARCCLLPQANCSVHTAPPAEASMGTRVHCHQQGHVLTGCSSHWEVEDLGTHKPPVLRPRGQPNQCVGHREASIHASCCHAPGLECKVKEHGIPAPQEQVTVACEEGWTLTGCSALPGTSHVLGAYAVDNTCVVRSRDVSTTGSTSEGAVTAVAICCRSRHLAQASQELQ
T2 sequence (Q8NBP7 31-152 partner limits assumed): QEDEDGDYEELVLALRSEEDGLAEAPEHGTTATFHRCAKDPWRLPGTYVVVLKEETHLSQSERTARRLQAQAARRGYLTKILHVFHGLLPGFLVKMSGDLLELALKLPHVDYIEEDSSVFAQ

Captavidin: avidin analog with binding affinity towards biotin
maximal quenching of fluorescence intensity of (IIId) [1]: 75.5%

h insulin: control peptide which does not bind with biotin
quenching of fluorescence intensity of (IIId) [1]: 30%

(aa181-200): peptide of catalytic segment of hPCSK9 (aa181-200) from a previous study (EVYLLDTSIQSDHREIEGRV; UniProt Q8NBP7 181-200, looked up, fragment)
LDL-R promoting effect (previous study) (LDL-R [2]): modest LDL-R promoting effect

(aa368-390): peptide of catalytic segment of hPCSK9 (aa368-390) from a previous study (IIGASSDCSTCFVSQSGTSQAAA; UniProt Q8NBP7 368-390, looked up, fragment)
LDL-R promoting effect (previous study) (LDL-R [2]): modest LDL-R promoting effect

^365GEDIIGASSDASTCFVSQSG^384 [CP3-C/A]
LDL-R promoting effect of acyclic mutant compared with CP3 (LDL-R [3]; HepG2, FIG. 16): completely lost

streptavidin: avidin analog with binding affinity towards biotin
Kd [4]: ~100 pM | maximal quenching of fluorescence intensity of (IIId) [1]: ~81.4%

Nutravidin: avidin analog with binding affinity towards biotin
maximal quenching of fluorescence intensity of (IIId) [1]: 85%

FI-EGF-A: 5-Carboxy Fluorescein N-terminally labeled 42 aa EGF-A domain peptide of hLDL-R (aa314-355)
complex formation with recPCSK9 [5]: forms a stable complex | restoration of LDL-R level after rec-PCSK9 (LDL-R [6]; HuH7 cells, rec-PCSK9 20 μg/ml, increasing amounts of FI-EGF-A, FIG. 13B): partly restored gradually | LDL-R level versus DMSO control (LDL-R [3]; HepG2, 12 μg/ml, 24 h, standardized against actin, FIG. 13A): significant up regulation of the LDL-R | PCSK9 level versus DMSO control (PCSK9): marked up regulation of PCSK9

avidin: biotin-binding protein
quenching of fluorescence intensity of (IIId) [1]: ~98%

GEDIIGASSDCSTCFVSQSG [CP3]
rescue of LDL-R level following degradation by externally added PCSK9 protein (LDL-R [6]; cell line not stated at the place (HepG2 or HuH7)): can rescue LDL-R level to a significant level | LDL-R promoting activity (LDL-R [3]; HepG2, 5.5 μM, FIG. 16): modest but significant LDL-R promoting activity
